Laboratory results published in US20230068456A1, “REAL-TIME MONITORING OF IN VIVO FREE RADICAL SCAVENGERS THROUGH HYPERPOLARIZED N-ACETYL CYSTEINE ISOTOPES” (THE UNITED STATES OF AMERICA, AS REPRESENTED BY THE …, priority 2020, published 2023).

Key:
[1] = target: T1, acylase 1 (Homo sapiens, UniProt Q03154); experiment: In vitro enzymatic assay of hyperpolarized NAC incubated with acylase 1 (1T NMR); type: biochemical; conditions: without inhibitor
T1 sequence (Q03154 1-408): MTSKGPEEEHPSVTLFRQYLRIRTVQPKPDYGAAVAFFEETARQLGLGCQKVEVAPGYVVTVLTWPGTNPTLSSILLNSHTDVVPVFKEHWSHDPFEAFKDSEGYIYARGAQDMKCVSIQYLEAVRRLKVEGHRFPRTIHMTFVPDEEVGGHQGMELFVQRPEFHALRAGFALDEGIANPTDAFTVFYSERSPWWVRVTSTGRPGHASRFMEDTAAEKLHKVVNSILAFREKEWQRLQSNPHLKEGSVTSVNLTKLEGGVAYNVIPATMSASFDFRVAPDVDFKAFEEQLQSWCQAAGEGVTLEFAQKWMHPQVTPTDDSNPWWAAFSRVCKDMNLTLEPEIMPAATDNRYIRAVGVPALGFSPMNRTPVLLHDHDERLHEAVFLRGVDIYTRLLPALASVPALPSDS

[2] = test system: SU.86.86; experiment: In cell dynamic 13C NMR of hyperpolarized [1-13C] NAC at 1T, SU.86.86 cells; type: cell-based, human
Description: FIG. 2B is a in cell dynamic ^13C NMR spectra of hyperpolarized [1-^13C] NAC at 1T NMR on 20×10^6 cells of human pancreatic tumor cell lines of SU.86.86 (left) and expanded spectra with 100 times magnifications at 2 seconds after the hyperpolarized [1-^13C] NAC injections in SU.86.86 (right);
(§1) In an embodiment, a cell dynamic ^13C NMR spectra of hyperpolarized [1-^13C] NAC at 1T NMR spectrometer on human pancreatic ductal adenocarcinoma (PDAC) cell lines, which have one of the worst prognosises among common cancers and need effective diagnostic approaches, Hs766t (FIG. 2A) and SU.86.86 (FIG. 2B), in both cases, the cell dynamic ^13C-nuclear magnetic resonance (NMR) spectra of the hyperpolarized [1-^13C] […]
(§2) All of the animal experiments were conducted in compliance with the Guide for the Care and Use of Laboratory Animal Resources, and experimental protocols were approved by the Animal Care and Use Committee, National Cancer Institute (NCI-CCR-ACUC) (National Research Council, Committee for the Update of the Guide for the Care and Use of Laboratory Animals. Guide for the care and use of laboratory animals. Washington, D.C.: Institute of Laboratory Animal Resources 2011). […] Both respiration (60-90 breaths per min) and temperature (35-37° C.) were maintained at a normal physiological range and monitored continuously during the animal experiment using the adjusted anesthesia.

[3] = test system: Hs766t tumor xenografts; experiment: Dynamic 13C MR spectra and CSI of hyperpolarized [1-13C] NAC at 3T MRI, Hs766t tumor xenografts; type: in vivo, mouse
Method: (§3) All of the animal experiments were conducted in compliance with the Guide for the Care and Use of Laboratory Animal Resources, and experimental protocols were approved by the Animal Care and Use Committee, National Cancer Institute (NCI-CCR-ACUC) (National Research Council, Committee for the Update of the Guide for the Care and Use of Laboratory Animals. Guide for the care and use of laboratory animals. Washington, D.C.: Institute of Laboratory Animal Resources 2011). The human pancreatic ductal adenocarcinoma (PDAC) cell lines, […], and SU.86.86 cells, were purchased from Threshold Pharmaceuticals (Redwood City, Calif.). Human pancreatic tumor inoculated mice were generated by subcutaneous injection of 3×10^5 cells into the right hind legs of mice. Detailed conditions for cell culture and xenograft tumor development were as described previously in K. Yamamoto, J. R. Brender, T. Seki, S. Kishimoto, N. Oshima, R. Choudhuri, S. S. Adler, E. M. Jagoda, K. Saito, N. Devasahayam, P. L. Choyke, J. B. Mitchell, and M. C. Krishna, Cancer Res 2020, 80, 2087-2093, which is incorporated herein in its entirety by reference. […] Both respiration (60-90 breaths per min) and temperature (35-37° C.) were maintained at a normal physiological range and monitored continuously during the animal experiment using the adjusted anesthesia. […]

[4] = test system: SU.86.86 tumor xenografts; experiment: Dynamic 13C MR spectra of hyperpolarized [1-13C] NAC at 3T MRI, SU.86.86 tumor xenografts; type: in vivo; conditions: SU.86.86 mouse leg xenograft, iv, FIGS. 4B, 4C
Method: as §3

[5] = Hyperpolarized 13C chemical shift imaging (CSI) in healthy mouse body and head after iv injection
[6] = test system: Hs766t; experiment: In cell dynamic 13C NMR of hyperpolarized [1-13C] NAC at 1T, Hs766t cells; type: cell-based, human
Description: FIG. 2A is a in cell dynamic ^13C NMR spectra of hyperpolarized [1-^13C] NAC at 1T NMR on 20×10^6 cells of human pancreatic tumor cell lines of Hs766t (left) and expanded spectra with 100 times magnifications at 2 seconds after the hyperpolarized [1-^13C] NAC injections in Hs766t (right);
as §1, §2

Compound: CC(=O)N[C@@H](CS)[13C](=O)O [[1-^13C] NAC, [1-^13C] N-acetyl cysteine]
- enzymatic conversion by acylase 1 [1]: immediate production of cysteine
- NAC-GSH concentrations ([2]; SU.86.86 compared with Hs766t): Lower concentrations NAC-GSH
- NAC-GSH formation in cell culture ([2]; SU.86.86, 20×10^6 cells, FIG. 2C): can produce NAC-glutathione (NAC-GSH)
- amount of NAC-GSH formed ([3]; Hs766t compared with SU.86.86 tumors, FIGS. 4C and 4D): higher in Hs766t than in SU.86.86 tumors
- NAC-GSH formation in tumor ([3]; Hs766t mouse leg xenograft, iv, FIGS. 4A, 4C): rapidly formed
- NAC-GSH formation in tumor [4]: rapidly formed
- time to global distribution throughout the mouse body after injection ([5]; healthy mouse, iv tail vein cannula, 13C CSI): ≤ 30 s
- tissue distribution: lung region signal ([5]; healthy mouse, iv, 13C CSI, FIG. 6A): lower signal
- metabolites in the liver and kidney regions ([5]; normal mice, in vivo, no imposed oxidative stress): not observed
- NAC-GSH formation in cell culture ([6]; Hs766t, 20×10^6 cells, FIG. 2C): can produce NAC-glutathione (NAC-GSH)
- cell membrane permeation ([6]; PDAC cell cultures (Hs766t and SU.86.86), suggested by the rapid kinetics of NAC-GSH formation): may permeabilize through cell membranes without active transport
